Read-outs that look alike come from different tables or passages of the source.
Columns and labels:
[1] = target: recombinant human mPGES-1 (Homo sapiens (Human), UniProt O14684); test: mPGES-1 enzyme assay (HTRF detection of PGE2); type: biochemical
Experimental: Microsomes from Rosetta E. coli bacteria expressing recombinant human mPGES-1 can be derived as described below:
Inoculate 5 ml LB with Ampicilin (50 μg/ml) and Chloramphenicol (34 μg/ml) with bacteria from freeze culture. Incubate 8 h at 37° C. with 200 rpm. Thereafter, inoculate 500-1000 ml LB containing Amp and Chloro with the 5 ml on culture and grow to OD640 of 0.8-1.0. Chill the culture to +4° C. before induction. Induce the culture with IPTG at a final concentration of 400 μM. Express the protein at room temp 18-23° C. with 200 rpm shaking over night.
The following steps can be performed on the following day: • 1. Spin down the cells in 250 ml centrifuge flasks for 15 min at 7000 rpm (Beckmann Coulte Avanti J-E centrifuge) • 2. Dissolve the pellet from 250 ml culture in 12.5 ml homogenization buffer • 3. (15 mM Tris-HCL pH8, 1 mM EDTA pH8, […], 2.5 mM GSH, 1 Tablet Protease inhibitor per 50 ml buffer) • 4. Disintegrate the cells by sonication, 5×10 seconds at 48% amplitude of a 750 W sonifier • 5. Add 2.5 ml MgCl2 (100 mM) and DNase 12.5 μl (0.8 mg/ml) and incubate on ice for 30 min • 6. Spin down the bacteria debris and save the supernatant, 7000 rpm for 15 min • 7. Isolate the protein containing membranes in the supernatant by ultracentrifugation 120000×g for 2 hour at 4° C. (Sorvall T880 rotor). • 8. Discard the supernatant and dissolve the pellet in 20 mM Potassium phosphate buffer pH7.4 (KH2PO4 and K2HPO4) buffer by sonication (5×10 s, 30% of a 50 W sonifier) and aliquot the enzyme and store aliquots at −80° C.
Before each experiment is performed an aliquot of the enzyme is thawed and it can then be dissolved in 0.1 M Potassium phosphate buffer pH7.4 (KH2PO4 and K2HPO4) buffer containing 2.5 mM GSH.
The aim of this assay is to determine the affinity of a test compound for the mPGES-1 enzyme.
47 μl of recombinant human mPGES-1 (˜0.5 μg protein/well) containing microsomal suspension in a buffer containing GSH, (2.5 mmol/L L-Glutathione reduced, dissolved in 0.1 mol/L Phosphat Buffer pH 7.4) is dispensed in a 384-well plate and thereafter 1 μl of the test compound(s) is/are added and incubated for 25 minutes at room temperature. The enzyme reaction is started by the addition of 2 ul PGH2 (final conc 2 μM) disolved in water-free Diglyme. After 60 seconds the reaction is terminated by addition of a stop solution containing FeCl2 (10 μL 0.074 mol/l FeCl2). The samples are diluted between 1:25 in PBS (Phosphate Buffered Saline). 10 μl of the diluted samples are transferred to 384-well low volume plate. In order to quantify the amount of PGE2 that has been formed, a homogenous time resolved fluorescent (HTRF) detecting of PGE2 has been performed using a commercially available kit from Cisbio according to the manufactures recommendation. This HTRF-based assay has been described in detail (see: Goedken et al., J Biomol Screen, 2008, 13(7), 619-625). Briefly, the diluted samples are mixed with 5 μl PGE2-d2 conjugate and 5 μl anti-PGE2 cryptate conjugate. After an incubation period of the plates over night, the fluorescence is measured by the use of an appropriate microplate reader.
The fluorescence of Europium cryptate (maxex=307 nm, maxem=620 nm) and d2-PGE2 (maxex=620 nm, maxem=665 nm) are measured.
The extent of the specific HTRF is measured as a ratio of the emission intensity at 665 nm vs. that at 620 nm at an excitation puts of 320 nm. The quantification plate contains also wells with different concentrations of PGE2 as calibration curve for the calculation of the PGE2 concentrations from the HTRF ratio values.
From all mPGES enzyme assay the background is subtracted and the IC50 is calculated over a nonlinear regression with conventional software.

mPGES-1 in A549 cells = mPGES-1 in A549 cells (Homo sapiens (Human), UniProt O14684); test: A549 cell-based assay (PGE2 formation, 50% human serum)
Summary of the method: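 A549 cells in F-12K with 50% human serum were stimulated 20-24 h with 5 ng/ml IL-1β and 10 nM arachidonic acid in presence of compound or vehicle. PGE2 in the cell-free medium was measured by HTRF, normalised to vehicle (100%). IC50 from 6-8 point titrations.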

[2] = recombinant human mPGES-1 microsomes, PGH2 2 μM, 60 seconds, read-out: mPGES-1 inhibitory effect IC50 in the enzyme assay
[3] = IL-1β 5 ng/ml, 10 nM arachidonic acid, 20-24 h, read-out: mPGES-1 inhibitory effect IC50 in the cell assay

mPGES-1 in A549 cells, sequence (O14684 whole entry): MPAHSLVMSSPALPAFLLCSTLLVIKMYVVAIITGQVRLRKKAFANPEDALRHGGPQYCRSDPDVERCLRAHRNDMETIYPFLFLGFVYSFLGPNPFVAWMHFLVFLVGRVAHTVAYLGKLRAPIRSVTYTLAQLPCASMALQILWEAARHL
recombinant human mPGES-1, sequence (O14684 whole entry): as above

Row | Structure (SMILES) | IC50 [1, 2] | IC50 (mPGES-1 in A549 cells; [3]) | IC50 ([1]; Table C comparison of selected benzimidazoles, read-out: Enzym IC50) | IC50 (mPGES-1 in A549 cells; Table C comparison of selected benzimidazoles, read-out: Cell IC50)
1 | Cn1c(Nc2c(Cl)ccc(CNC(=O)C(C)(C)C)c2Cl)nc2cc(C(=O)NCC(F)(F)F)c(N3CCC(C(C)(C)O)CC3)cc21 [Example 29, N-(2,2,2-Trifluoroethyl)-2-{2,6-dichloro-3-[(2,2-dimethyl-propionylamino)-methyl]-phenylamino}-6-[4-(1-hydroxy-1-methyl-ethyl)-piperidinyl]-1-methyl-1H-benzimidazole-5-carboxylic acid amide] | 2 nM | 3 nM | – | –
2 | Cn1c(Nc2c(Cl)ccc(CNC(=O)C(C)(C)C)c2Cl)nc2cc(C(=O)NCC(F)(F)F)c(Nc3ccc(F)c(Cl)c3)cc21 [Example 30] | 5 nM | 144 nM | – | –
3 | CN(c1ccc(F)c(Cl)c1)c1cc2c(cc1C(=O)NCC(F)(F)F)nc(Nc1c(Cl)ccc(CNC(=O)C(C)(C)C)c1Cl)n2C [Example 31] | 4 nM | 33 nM | – | –
4 | Cn1c(Nc2c(Cl)ccc(CNC(=O)C(C)(C)C)c2Cl)nc2cc(C(=O)NCC(F)(F)F)c(N3CCc4ccc(Cl)cc4C3)cc21 [Example 32] | 2 nM | 6 nM | – | –
5 | Cc1nc2c(s1)CN(c1cc3c(cc1C(=O)NCC(F)(F)F)nc(Nc1c(Cl)ccc(CNC(=O)C(C)(C)C)c1Cl)n3C)C2 [Example 33] | 3 nM | 8 nM | – | –
6 | CN(CCC(F)(F)F)c1cc2c(cc1C(=O)NCC(F)(F)F)nc(Nc1c(Cl)ccc(CNC(=O)C(C)(C)C)c1Cl)n2C [Example 34] | 3 nM | 1 nM | – | –
7 | Cn1c(Nc2c(Cl)ccc(CNC(=O)C(C)(C)C)c2Cl)nc2cc(C(=O)Nc3ccc(OC(F)(F)F)cc3)c(N3CCC(F)(F)C3)cc21 [Example 35, N-(4-Trifluoromethoxy-phenyl)-2-{2,6-dichloro-3-[(2,2-dimethyl-propionylamino)-methyl]-phenylamino}-6-[3,3-difluoro-pyrrolidinyl]-1-methyl-1H-benzimidazole-5-carboxylic acid amide] | 2 nM | 1 nM | – | –
8 | CC(NC(=O)c1cc2nc(Nc3c(Cl)ccc(CNC(=O)C(C)(C)C)c3Cl)n(C)c2cc1N1CCC(F)(F)C1)c1cccs1 (centres unmarked) [Example 36] | 5 nM | 6.5 nM | – | –
9 | Cn1c(Nc2c(Cl)ccc(CNC(=O)C(C)(C)C)c2Cl)nc2cc(C(=O)NC3(c4ccc(F)cc4)CC3)c(N3CCC(F)(F)C3)cc21 [Example 37] | 5 nM | 3 nM | – | –
10 | Cn1c(Nc2c(Cl)ccc(CNC(=O)C(C)(C)C)c2Cl)nc2cc(C(=O)NC(c3ccccn3)C(F)(F)F)c(N3CCC(F)(F)C3)cc21 (centres unmarked) [Example 38] | 4 nM | 6 nM | – | –
11 | CC(NC(=O)c1cc2nc(Nc3c(Cl)ccc(CNC(=O)C(C)(C)C)c3Cl)n(C)c2cc1N1CCC(F)(F)C1)C(F)(F)F (centres unmarked) [Example 39] | 1 nM | 2 nM | – | –
12 | Cn1c(Nc2c(Cl)ccc(CNC(=O)C(C)(C)C)c2Cl)nc2cc(C(=O)Nc3cccc(OC(F)(F)F)c3)c(N3CCC(F)(F)C3)cc21 [Example 40] | 2 nM | < 1 nM | – | –
13 | Cn1c(Nc2c(Cl)ccc(CNC(=O)C(C)(C)C)c2Cl)nc2cc(C(=O)N[C@H](c3ccccc3)C(F)(F)F)c(N3CCC(F)(F)C3)cc21 [Example 41] | 2 nM | 7 nM | – | –
14 | Cn1c(Nc2c(Cl)ccc(CNC(=O)C(C)(C)C)c2Cl)nc2cc(C(=O)Nc3ccc(F)c(Cl)c3)c(N3CCC(C(F)(F)F)CC3)cc21 [Example 54, N-(3-Chloro-4-fluoro-phenyl)-2-{2,6-dichloro-3-[(2,2-dimethyl-propionylamino)-methyl]-phenylamino}-6-[4-trifluoromethyl-piperidinyl]-1-methyl-1H-benzimidazole-5-carboxylic acid amide] | 2 nM | 1.4 nM | – | –

The remaining lines, values ahead:

Row | IC50 [1, 2] | IC50 (mPGES-1 in A549 cells; [3]) | IC50 ([1]; Table C comparison of selected benzimidazoles, read-out: Enzym IC50) | IC50 (mPGES-1 in A549 cells; Table C comparison of selected benzimidazoles, read-out: Cell IC50) | Structure (SMILES)
15 | 2 nM | 2 nM | – | – | Cn1c(Nc2c(Cl)ccc(CNC(=O)C(C)(C)C)c2Cl)nc2cc(C(=O)Nc3ccc(F)c(Cl)c3)c(N3CCC(F)(F)C3)cc21 [Example 42]
16 | 3 nM | 5 nM | – | – | Cn1c(Nc2c(Cl)ccc(CNC(=O)C(C)(C)C)c2Cl)nc2cc(C(=O)NCc3ncccc3C(F)(F)F)c(N3CCC(F)(F)C3)cc21 [Example 43]
17 | 4 nM | 6 nM | – | – | Cn1c(Nc2c(Cl)ccc(CNC(=O)C(C)(C)C)c2Cl)nc2cc(C(=O)NCc3ccc(F)cc3C(F)(F)F)c(N3CCC(F)(F)C3)cc21 [Example 44]
18 | 5 nM | 7 nM | 5 nM | 7 nM | Cn1c(Nc2c(Cl)ccc(CNC(=O)C(C)(C)C)c2Cl)nc2cc(C(=O)NCC3CC3)c(N3CCC(F)(F)C3)cc21 [Example 45]
19 | 3 nM | 7 nM | – | – | Cn1c(Nc2c(Cl)ccc(CNC(=O)C(C)(C)C)c2Cl)nc2cc(C(=O)NCCCC(F)(F)F)c(N3CCC(F)(F)C3)cc21 [Example 46]
20 | 2 nM | 1 nM | – | – | Cn1c(Nc2c(Cl)ccc(CNC(=O)C(C)(C)C)c2Cl)nc2cc(C(=O)Nc3cccc(C(F)(F)F)n3)c(N3CCC(F)(F)C3)cc21 [Example 47]
21 | 2 nM | 8 nM | – | – | Cn1c(Nc2c(Cl)ccc(CNC(=O)C(C)(C)C)c2Cl)nc2cc(C(=O)NC(Cc3ccccc3)C(F)(F)F)c(N3CCC(F)(F)C3)cc21 (centres unmarked) [Example 48]
22 | 4 nM | 4 nM | – | – | CC(C)C(NC(=O)c1cc2nc(Nc3c(Cl)ccc(CNC(=O)C(C)(C)C)c3Cl)n(C)c2cc1N1CCC(F)(F)C1)C(F)(F)F (centres unmarked) [Example 49]
23 | 3 nM | 2 nM | – | – | Cn1c(Nc2c(Cl)ccc(CNC(=O)C(C)(C)C)c2Cl)nc2cc(C(=O)NCC(F)(F)C(F)(F)F)c(N3CCC(F)(F)C3)cc21 [Example 50]
24 | 3 nM | < 1 nM | – | – | Cn1c(Nc2c(Cl)ccc(CNC(=O)C(C)(C)C)c2F)nc2cc(C(=O)Nc3ccc(F)c(Cl)c3)c(N3CCC(F)(F)C3)cc21 [Example 51]
25 | 2 nM | 1 nM | – | – | Cn1c(Nc2c(Cl)ccc(CNC(=O)C(C)(C)C)c2Cl)nc2cc(C(=O)NCC(F)(F)C(F)(F)F)c(N3CCC(C(F)(F)F)CC3)cc21 [Example 53]
26 | 2 nM | 5 nM | – | – | Cn1c(Nc2c(Cl)ccc(CNC(=O)C(C)(C)C)c2Cl)nc2cc(C(=O)Nc3cccc(C(F)(F)F)n3)c(N3CCC(C(F)(F)F)CC3)cc21 [Example 55]
27 | 1 nM | < 1 nM | – | – | Cn1c(Nc2c(Cl)ccc(CNC(=O)C(C)(C)C)c2Cl)nc2cc(C(=O)Nc3ccc(Cl)c(F)c3)c(N3CCC(C(F)(F)F)CC3)cc21 [Example 56]
28 | 1 nM | 1 nM | – | – | Cn1c(Nc2c(Cl)ccc(CNC(=O)C(C)(C)C)c2Cl)nc2cc(C(=O)Nc3ccc(OC(F)(F)F)cc3)c(N3CCC(C(F)(F)F)CC3)cc21 [Example 57]
29 | 3 nM | 1 nM | – | – | Cn1c(Nc2c(Cl)ccc(CNC(=O)C(C)(C)C)c2Cl)nc2cc(C(=O)NC3(c4ccc(F)cc4)CC3)c(N3CCC(C(F)(F)F)CC3)cc21 [Example 58]
30 | 4 nM | < 1 nM | – | – | Cn1c(Nc2c(Cl)ccc(CNC(=O)C(C)(C)C)c2Cl)nc2cc(C(=O)NC3CCN(CC(F)(F)F)CC3)c(N3CCC(C(F)(F)F)CC3)cc21 [Example 59]

— patent publication US8674113B2, “Compounds” (Boehringer Ingelheim International GmbH, priority 2010, dated 2014)
